Data published in paper PMC10321576, “Cyclic peptides target the aromatic cage of a PHD-finger reader domain to modulate epigenetic protein function” (Chemical Science, 2023).
Peptide text beside a SMILES is read from it.

Target: T1, KDM7B PHD-finger (Homo sapiens, UniProt Q9UPP1)
T1 construct: KDM7B 1-66; His-tag (C); made in house
T1 sequence (Q9UPP1 1-66 isoform Q9UPP1-2): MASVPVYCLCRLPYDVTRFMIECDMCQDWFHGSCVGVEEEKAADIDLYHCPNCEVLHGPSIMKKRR
Assay: Protein NMR 1H-15N HSQC chemical shift perturbation
Format: binding
Text: To better elucidate OC9 interactions at a single residue level, we conducted protein NMR studies using isotopically labelled PHD-finger.[48] Comparison of ^1H–^15N HSQC spectra for isotopically labelled apo and OC9-bound protein (Fig. 4a), independently assigned using ^13C,^15N 3D experiments (Fig. S21, NMR ESI ^†), identified 24 out of 66 protein residues with significant (standard deviation, s > 1) chemical shift perturbation (CSP, Δδ) of their backbone amides (Fig. 4b).
(a) ^1H–^15N HSQC of KDM7B PHD-finger in the apo (black) or bound forms with OC9 (purple, 1 : 1) or H3_1–21K4me3 (green, 3 : 1). (b) ^1H and ^15N chemical shift changes for apo vs. + OC9 were combined and weighted to give chemical shift perturbation (CSP) (Δδ) values. Standard deviation (σ) of Δδ are indicated (>1 pink, >2 purple). (c) TALOS+ predicts similar secondary structure elements in apo and OC9-bound solution protein complexes (light grey) to those found in PDB ID 3KV4 (dark grey). […] (e) Shielded ^1H-NMR signals centred around −0.5 ppm belonging to the OC9 V10 γ-methyl groups are observed in some OC9–PHD complexes, but not in apo protein, or complexes with OC9 V10A and OC9 V10DV. The V10^OC9 γ-methyl signals have NOE interactions (black semi-circles) with the W29^PHD indole, which itself is shielded upon binding of OC9 (indicated by ΔδH values).

In the case of `CC(C)[C@@H]1NC(=O)[C@H](CO)NC(=O)[C@@H]2CCCN2C(=O)[C@H](Cc2ccc(O)cc2)NC(=O)[C@@H]2CCCN2C(=O)[C@H](Cc2c[nH]cn2)NC(=O)[C@H]([C@@H](C)O)NC(=O)[C@H](C)NC(=O)[C@H](Cc2ccc(O)cc2)NC(=O)[C@H](Cc2ccc(O)cc2)NC(=O)CSC[C@@H](C(N)=O)NC(=O)[C@H]([C@@H](C)O)NC(=O)[C@H](CCCNC(=N)N)NC(=O)[C@H](Cc2ccccc2)NC1=O` [L3A] (HELM PEPTIDE1{[O=C(C[*:3])[*:2]].Y.Y.A.T.H.P.Y.P.S.V.F.R.T.C.[am]}$PEPTIDE1,PEPTIDE1,1:R3-15:R3$$$V2.0; C-terminus assumed), the “CSP Ala2” value (residue Ala2 amide 1H-15N, Free PHD vs PHD+peptide) is reported as 0.0068, the “CSP Ala2, OC9 vs OC9 L3A” value (residue Ala2 amide, PHD+OC9 vs PHD+OC9 L3A) is reported as 0.0102 and the “CSP Ala42” value (residue Ala42 amide 1H-15N, Free PHD vs PHD+peptide) is reported as 0.4335. For the same molecule, the “CSP Ala42, OC9 vs OC9 L3A” value (residue Ala42 amide, PHD+OC9 vs PHD+OC9 L3A) was 0.0214, the “CSP Ala43” value (residue Ala43 amide 1H-15N, Free PHD vs PHD+peptide) was 0.4214 and the “CSP Ala43, OC9 vs OC9 L3A” value (residue Ala43 amide, PHD+OC9 vs PHD+OC9 L3A) was 0.0343. For the same molecule, the “CSP Arg11” value (residue Arg11 amide 1H-15N, Free PHD vs PHD+peptide) was 0.0169, the “CSP Arg11, OC9 vs OC9 L3A” value (residue Arg11 amide, PHD+OC9 vs PHD+OC9 L3A) was 0.0087 and the “CSP Arg18” value (residue Arg18 amide 1H-15N, Free PHD vs PHD+peptide) was 0.1337. The “CSP Arg18, OC9 vs OC9 L3A” value (residue Arg18 amide, PHD+OC9 vs PHD+OC9 L3A) was 0.0146, the “CSP Arg65” value (residue Arg65 amide 1H-15N, Free PHD vs PHD+peptide) was 0.0010 and the “CSP Arg65, OC9 vs OC9 L3A” value (residue Arg65 amide, PHD+OC9 vs PHD+OC9 L3A) was 0.0115. The “CSP Arg66” value (residue Arg66 amide 1H-15N, Free PHD vs PHD+peptide) was 0.0045, the “CSP Arg66, OC9 vs OC9 L3A” value (residue Arg66 amide, PHD+OC9 vs PHD+OC9 L3A) was 0.0034 and the “CSP Asn52” value (residue Asn52 amide 1H-15N, Free PHD vs PHD+peptide) was 0.0619. For the same molecule, the “CSP Asn52, OC9 vs OC9 L3A” value (residue Asn52 amide, PHD+OC9 vs PHD+OC9 L3A) was 0.0178, the “CSP Asp15” value (residue Asp15 amide 1H-15N, Free PHD vs PHD+peptide) was 0.2511 and the “CSP Asp15, OC9 vs OC9 L3A” value (residue Asp15 amide, PHD+OC9 vs PHD+OC9 L3A) was 0.0129. For the same molecule, the “CSP Asp24” value (residue Asp24 amide 1H-15N, Free PHD vs PHD+peptide) was 0.0765, the “CSP Asp24, OC9 vs OC9 L3A” value (residue Asp24 amide, PHD+OC9 vs PHD+OC9 L3A) was 0.0087 and the “CSP Asp28” value (residue Asp28 amide 1H-15N, Free PHD vs PHD+peptide) was 0.1850. For the same molecule, the “CSP Asp28, OC9 vs OC9 L3A” value (residue Asp28 amide, PHD+OC9 vs PHD+OC9 L3A) was 0.0277, the “CSP Asp44” value (residue Asp44 amide 1H-15N, Free PHD vs PHD+peptide) was 0.1299 and the “CSP Asp44, OC9 vs OC9 L3A” value (residue Asp44 amide, PHD+OC9 vs PHD+OC9 L3A) was 0.0065. For the same molecule, the “CSP Asp46” value (residue Asp46 amide 1H-15N, Free PHD vs PHD+peptide) was 0.1937, the “CSP Asp46, OC9 vs OC9 L3A” value (residue Asp46 amide, PHD+OC9 vs PHD+OC9 L3A) was 0.0214 and the “CSP Cys8” value (residue Cys8 amide 1H-15N, Free PHD vs PHD+peptide) was 0.2230. The “CSP Cys8, OC9 vs OC9 L3A” value (residue Cys8 amide, PHD+OC9 vs PHD+OC9 L3A) was 0.0115, the “CSP Cys10” value (residue Cys10 amide 1H-15N, Free PHD vs PHD+peptide) was 0.0457 and the “CSP Cys10, OC9 vs OC9 L3A” value (residue Cys10 amide, PHD+OC9 vs PHD+OC9 L3A) was 0.0102. For the same molecule, the “CSP Cys23” value (residue Cys23 amide 1H-15N, Free PHD vs PHD+peptide) was 0.1510, the “CSP Cys23, OC9 vs OC9 L3A” value (residue Cys23 amide, PHD+OC9 vs PHD+OC9 L3A) was 0.0210 and the “CSP Cys26” value (residue Cys26 amide 1H-15N, Free PHD vs PHD+peptide) was 0.1657. For the same molecule, the “CSP Cys26, OC9 vs OC9 L3A” value (residue Cys26 amide, PHD+OC9 vs PHD+OC9 L3A) was 0.0115, the “CSP Cys34” value (residue Cys34 amide 1H-15N, Free PHD vs PHD+peptide) was 0.0274 and the “CSP Cys34, OC9 vs OC9 L3A” value (residue Cys34 amide, PHD+OC9 vs PHD+OC9 L3A) was 0.0065. The “CSP Cys50” value (residue Cys50 amide 1H-15N, Free PHD vs PHD+peptide) was 0.0600, the “CSP Cys50, OC9 vs OC9 L3A” value (residue Cys50 amide, PHD+OC9 vs PHD+OC9 L3A) was 0.0129 and the “CSP Cys53” value (residue Cys53 amide 1H-15N, Free PHD vs PHD+peptide) was 0.0573. For the same molecule, the “CSP Cys53, OC9 vs OC9 L3A” value (residue Cys53 amide, PHD+OC9 vs PHD+OC9 L3A) was 0.0065, the “CSP Gln27” value (residue Gln27 amide 1H-15N, Free PHD vs PHD+peptide) was 0.1418 and the “CSP Gln27, OC9 vs OC9 L3A” value (residue Gln27 amide, PHD+OC9 vs PHD+OC9 L3A) was 0.0110. The “CSP Glu22” value (residue Glu22 amide 1H-15N, Free PHD vs PHD+peptide) was 0.1432, the “CSP Glu22, OC9 vs OC9 L3A” value (residue Glu22 amide, PHD+OC9 vs PHD+OC9 L3A) was 0.0223 and the “CSP Glu38” value (residue Glu38 amide 1H-15N, Free PHD vs PHD+peptide) was 0.1564. For the same molecule, the “CSP Glu38, OC9 vs OC9 L3A” value (residue Glu38 amide, PHD+OC9 vs PHD+OC9 L3A) was 0.0388, the “CSP Glu39” value (residue Glu39 amide 1H-15N, Free PHD vs PHD+peptide) was 0.2246 and the “CSP Glu39, OC9 vs OC9 L3A” value (residue Glu39 amide, PHD+OC9 vs PHD+OC9 L3A) was 0.0231. The “CSP Glu40” value (residue Glu40 amide 1H-15N, Free PHD vs PHD+peptide) was 0.1065, the “CSP Glu40, OC9 vs OC9 L3A” value (residue Glu40 amide, PHD+OC9 vs PHD+OC9 L3A) was 0.0110 and the “CSP Glu54” value (residue Glu54 amide 1H-15N, Free PHD vs PHD+peptide) was 0.0548. The “CSP Glu54, OC9 vs OC9 L3A” value (residue Glu54 amide, PHD+OC9 vs PHD+OC9 L3A) was 0.0034, the “CSP Gly32” value (residue Gly32 amide 1H-15N, Free PHD vs PHD+peptide) was 0.1585 and the “CSP Gly32, OC9 vs OC9 L3A” value (residue Gly32 amide, PHD+OC9 vs PHD+OC9 L3A) was 0.0220. For the same molecule, the “CSP Gly36” value (residue Gly36 amide 1H-15N, Free PHD vs PHD+peptide) was 0.1019, the “CSP Gly36, OC9 vs OC9 L3A” value (residue Gly36 amide, PHD+OC9 vs PHD+OC9 L3A) was 0.0055 and the “CSP Gly58” value (residue Gly58 amide 1H-15N, Free PHD vs PHD+peptide) was 0.0491. The “CSP Gly58, OC9 vs OC9 L3A” value (residue Gly58 amide, PHD+OC9 vs PHD+OC9 L3A) was 0.0055, the “CSP His31” value (residue His31 amide 1H-15N, Free PHD vs PHD+peptide) was 0.2104 and the “CSP His31, OC9 vs OC9 L3A” value (residue His31 amide, PHD+OC9 vs PHD+OC9 L3A) was 0.0065. For the same molecule, the “CSP His49” value (residue His49 amide 1H-15N, Free PHD vs PHD+peptide) was 0.0983.
